In paper PMC3410885, “6-Arylpyrido[2,3-d]pyrimidines as Novel ATP-Competitive Inhibitors of Bacterial D-Alanine:D-Alanine Ligase” (PLoS ONE, 2012):
≈ marks a conversion by molar mass, not a printed value.

What was measured:
E. coli DdlB [1] = biological target: T1, E. coli DdlB (Escherichia coli, UniProt P07862); assay: Isothermal titration calorimetry of binding to DdlB; conditions: ITC, 37°C; for entropy contribution of binding ([drawing 6]) / standard Gibbs free energy of binding ([drawing 5]): calculated from the fitted parameters
T1 construct: polyhistidine (His) tag (N); made in house; host or cells: E. coli BL21(λDE3), vector pQE-30 UA (Qiagen)
Description: Two of the compounds, 14 and 33, were also tested by ITC to obtain thermodynamic parameters of the binding into DdlB active site. Heat changes upon binding of the ligand on the E. coli DdlB were measured directly, corrected for the heats of dilution, and the model function was fitted to the experimental data points (see the Experimental section).
The value of critical parameter for obtaining highly reliable thermodynamic data ( [drawing 10] ) was not optimal due to low inhibitors solubility and quite low binding constants. Nevertheless, the conclusions below can be drawn. Experiments for the two compounds result in similar binding constants (K b≈10^5 M^−1) (Table 1), but the driving forces for the binding differ (Figure 11). The binding of compound 14 to DdlB results from favourable enthalpy and entropy contributions. […] But still, compensation of the opposing effects at 33 results in similar [drawing 11] (and binding constant) as at 14, although there are less specific interactions between 33 and the protein as at 14.
The heat changes upon binding were measured using a VP-ITC microcalorimeter from MicroCal, LLC (Northampton, MA, USA). Purified DdlB stock solution in 20% glycerol was dialysed for 40 hours at 4°C (50 mM Hepes, pH = 8.0, 10 mM KCl, 10 mM (NH4)2SO4, 5 mM MgCl2, and 0.01% Triton X-114) prior to titration. The ligand solutions were prepared by adding a stock solution of 14 or 33 in DMSO to the dialysis buffer to obtain final 50 μM solution of the DdlB inhibitor in 5% DMSO. Successive aliquots (11–31 μl) of the degassed ligand solution were injected at 5–8 min intervals by a motor driven syringe (300 μl) into the degassed DdlB solution (approximately 2 μM, 5% DMSO) in the calorimeter cell (V = 1.386 ml) with constant stirring (300 rpm) at 37°C. At the end of experiment the final ratio of ligand:enzyme in the titration cell was about 6∶1. The titration data was further corrected for the heat changes observed in the control titration of ligand solution into the dialysis buffer, 5% DMSO, alone. The experimental data was analysed using the Origin 7.0 software provided by MicroCal and fitted by a home written program, based on the non-linear Levenberg–Marquardt χ^2 regression procedure, assuming a single binding site model (two parameter fit): [drawing 12] [drawing 13] where P, L, and PL represent DdlB, ligand, and DdlB-ligand complex, ΔH and [drawing 14] are the measured enthalpy upon aliquot addition and the standard enthalpy change of the binding reaction, [drawing 15] and [drawing 16] represent the total number of moles of ligand and DdlB-ligand complex in the titration cell, r is the bound ligand to total protein concentration,[P]tot, ratio and K b is the binding constant. A detailed explanation of the applied model equation is given in the Information S2.

[2] = system: E. coli strains (1411, AB734, SM1411, ES100); assay: Antibacterial activity stated for the E. coli strains together; format: cell-based; conditions: Escherichia coli; read-out: MICs against all strains
Description: (§1) Selected DdlB inhibitors were tested for their antibacterial activity against two E. coli strains E. coli 1411 and E. coli AB734 (Table 2). […] Additionally, growth inhibition of efflux pump-deficient strains SM1411 (acrAB deficient derivative of 1411) and ES100 (tolC deficient derivative of AB734) was measured, and MICs were repeated for each strain in the presence of polymyxin B nonapeptide (PMBN) to assess the impact of outer-membrane permeability on antimicrobial activity.
(§2) Minimum inhibitory concentrations (MICs) were determined by broth microdilution against E. coli 1411, SM1411 (acrAB deficient derivative of 1411), AB734 and ES100 (tolC deficient derivative of AB734) according to CLSI guidelines. MICs were repeated for each strain in the presence of polymyxin B nonapeptide (4 μg/ml) to assess the impact of outer-membrane permeability on antimicrobial activity.

E. coli DdlB [3] = biological target: T1, E. coli DdlB; assay: Colorimetric malachite green inhibition assay of DdlB; format: biochemical; conditions: for Ki: against ATP (50-500 μM), D-Ala 10 mM, competitive model; for mode of inhibition of DdlB: kinetic analysis at different inhibitor and ATP concentrations; for IC50: malachite green assay, 700 μM D-Ala, 500 μM ATP, 37°C, 20 min, read-out: inhibitory activity on DdlB: IC50
Description: All of the synthesized 6-arylpyrido[2,3-d]pyrimidines 11–36 were assayed for in vitro inhibitory activity on E. coli DdlB by detecting orthophosphate generated during the enzymatic reaction using a Malachite green assay.
Inhibition of DdlB was measured at different inhibitor and ATP concentrations in order to determine Ki values and the mode-of-action of both compounds.
The target compounds were tested for their ability to inhibit the D-Ala-adding activity of DdlB ligase with the colorimetric malachite green method in which orthophosphate generated during the reaction is measured. Each compound was tested in duplicate at 100, 250 or 500 μM in a mixture, final volume 50 μL, containing 50 mM Hepes (pH 8.0), 5 mM MgCl2, 10 mM (NH4)2SO4, 10 mM KCl, 700 μM D-Ala, 500 μM ATP, purified His-tagged DdlB (diluted in 50 mM Hepes (pH 7.2) and 1 mM DTT) and the test compound dissolved in DMSO. The final concentration of DMSO was 5% (v/v). The reaction mixture was incubated at 37°C for 20 min, then quenched with 100 μL of Biomol reagent and absorbance at 650 nm was measured after 5 min. To exclude possible promiscuous inhibitors, all compounds were tested in the presence of Triton-114 (0.005%). Residual activities were calculated relative to control assays without the compounds and with DMSO.

DdlB = biological target: T2, DdlB (Escherichia coli, UniProt P07862); assay: Surface plasmon resonance binding to immobilised DdlB; conditions: steady-state affinity model; 25°C; 50 mM Hepes, 150 mM NaCl, 5% DMSO; read-out: KD (SPR)
T2 construct: polyhistidine (His) tag (N); made in house; host or cells: E. coli BL21(λDE3), vector pQE-30 UA (Qiagen)
Description: The binding of the compounds 11, 13, 14, 24, 27, 33, and 35 to the target enzyme was confirmed using surface plasmon resonance (SPR) (Figure 10). Experiments were performed at conditions that enable long term stability of the enzyme. […] The enzyme was covalently attached to the surface of a sensor chip CM5 and compounds were titrated over the surface. The binding of all the compounds was characterised by fast association and dissociation rates. Equilibrium affinity constants, estimated from the steady-state binding levels are in agreement with enzymatic studies and ITC. In addition, the binding of other compounds was tested but insufficient solubility at higher concentrations of analytes in the running buffer precluded analysis.
Figure 10 SPR analysis of compounds binding to DdlB. Different concentrations of compounds were tested for the binding (left panels in all cases). The binding curves (right panels) were generated by ploting steady-state response levels, i.e. at the end of the association phase, vs concentration of the injected compound. For each compound 3–5 independent titrations were performed.
The binding constants were obtained by using a Biacore T100 (Biacore, GE Healthcare, USA). […] Two 1 min injections of 50 μg/ml DdlB diluted in 10 mM Na-acetate, pH 4.0 were applied on the second flow cell. The first flow cell was left unmodified and served as a control for non-specific binding of tested compounds. The remaining active groups on the surface of both flow cells were deactivated with a 7-min injection of ethanolamine. The level of immobilized enzyme was around 10000 response units.
Each analyte was titrated, with 3 or 4 repetitions, using different concentrations according to their solubility in running buffer (50 mM Hepes, 150 mM NaCl, 5% DMSO, pH 7.4), usually from 0,781 μM to 500 μM. One concentration was repeated at the end of the assay in each dilution series, in order to check the surface stability and repeatability. The association lasted 60 seconds at a flow-rate 30 μl/min. No regeneration was needed. All experiments were performed at 25°C. Sensorgrams were double referenced by subtracting the signal obtained in the empty flow cell and the injection of the buffer. The steady-state response levels were fitted using the Steady State Affinity model in Biacore T100 Evaluation software.

E. coli BC enzyme = conditions: read-out: IC50 for the E. coli BC enzyme; cited from earlier work
[4] = system: ES100 (tolC deficient derivative of AB734); assay: MIC by broth microdilution, ES100; format: cell-based, E. coli
Description: as §1, §2

[5] = system: SM1411 (acrAB deficient derivative of 1411); assay: MIC by broth microdilution, SM1411; format: cell-based, E. coli
Description: as §1, §2

Ddl = biological target: Ddl; design: method as in PMID 14479178; conditions: read-out: Ki of D-cycloserine on Ddl; cited from earlier work
[6] = with polymyxin B nonapeptide (4 μg/ml)

Structure (SMILES)	Kd (E. coli DdlB [1])	standard enthalpy of binding ([drawing 4]) (E. coli DdlB [1])	entropy contribution of binding ([drawing 6]) (E. coli DdlB [1])	standard Gibbs free energy of binding ([drawing 5]) (E. coli DdlB [1])	MIC [2]	Ki (E. coli DdlB [3])	mode of inhibition of DdlB (E. coli DdlB [3])	IC50 (E. coli DdlB [3])	fold greater DdlB inhibitory potency than corresponding diamine 13 (E. coli DdlB [3]; ratio of IC50 values, 14 against 13)	Kd (DdlB)	IC50 (E. coli BC enzyme)	MIC ([4]; Escherichia coli, read-out: MIC ES100 (tolC))	MIC ES100 +PMBN [4, 6]	MIC ([5]; Escherichia coli, read-out: MIC SM1411 (acrAB))	MIC SM1411 +PMBN [5, 6]	melting point	Ki (Ddl)
COc1cc(OC)cc(-c2cc3cnc(N)nc3nc2NC(=O)NC(C)(C)C)c1 [Compound 14, 1-(2-amino-6-(3,5-dimethoxyphenyl)pyrido[2,3-d]pyrimidin-7-yl)-3-tert-butylurea]	10 µM	-4 kcal/mol	3 kcal/mol	-7 kcal/mol	> 256 µg/mL	31 ± 4 µM	ATP competitive inhibitors	340 µM	2.6 fold	19 ± 6.6 µM	–	–	–	–	–	–	–
CC(C)(C)NC(=O)Nc1nc2nc(N)ncc2cc1-c1c(Cl)cccc1Cl [Compound 27, 1-(2-amino-6-(2,6-dichlorophenyl)pyrido[2,3-d]pyrimidin-7-yl)-3-tert-butylurea]	–	–	–	–	> 256 µg/mL	–	–	655 µM	–	16.7 ± 6.5 µM	–	–	–	–	–	–	–
Nc1ncc2cc(-c3c(Br)cccc3Br)c(N)nc2n1 [Compound 33, 6-(2,6-dibromophenyl)pyrido[2,3-d]pyrimidine-2,7-diamine]	10 µM	4 kcal/mol	11 kcal/mol	-7 kcal/mol	–	38 ± 5 µM	ATP competitive inhibitors	453 µM	–	161 ± 73.7 µM	< 0.005 µM	0.5 µg/mL (≈ 1.27 µM)	0,125 μg/ml	1 µg/mL (≈ 2.53 µM)	0,25 μg/ml	–	–
Nc1ncc2cc(-c3ccc4c(c3)OCO4)c(N)nc2n1 [Compound 35, 6-(benzo[d][1,3]dioxol-5-yl)pyrido[2,3-d]pyrimidine-2,7-diamine]	–	–	–	–	> 256 µg/mL	–	–	1110 µM	–	104 ± 36.2 µM	–	–	–	–	–	> 300 °C	–
N[C@@H]1CON=C1O [D-cycloserine, D-4-amino-3-isoxazolidone, reference compound]	–	–	–	–	–	–	–	296 µM	–	–	–	–	–	–	–	–	27 µM
